In PMC10135756 (2023) one finds binding and Kd data, which are given here for five molecules.

Structures are written as SMILES.

The test system of assay [1] is CSS.1-42 (DNA, aptamer) GACGACGCCCGCATGTTCCATGGATAGTCTTGACTAGTCGTC
The experiment in a line: SGI fluorescence. The conditions noted are these: 100 mM NaCl, 10 mM MgCl2; 20 mM HEPES pH 7.5; 0.1× SGI, 1 μM aptamer.

In assay [2] the test system is DNA1 (DNA, other) ACGACACGGAGGCTTAGTTTGCTAAATGGTCATGTCGT
The experiment in a line: SGI fluorescence. The conditions noted are these: 500 mM NaCl, 20 mM MgCl2; 50 mM Tris pH 7.6; 0.02× SGI, 200 nM DNA1.

The test system of assay [3] is Ade Apt (adenosine aptamer, WT) (DNA, aptamer) ACCTGGGGGAGTATTGCGGAGGAAGGT
The experiment in a line: ThT displacement fluorescence, quartz cuvette. The following applies: 50 mM NaCl, 4 mM MgCl2, 10 mM HEPES pH 7.6, 20 °C.

Assay [4] relates to Ade Apt M2 (DNA, aptamer) ACCTGGGGTAGTATTGCGGAGTAAGGT
As to the kind of experiment: ThT displacement fluorescence, quartz cuvette. The conditions noted are these: 50 mM NaCl, 4 mM MgCl2; 10 mM HEPES pH 7.6, 20 °C; 2 μM ThT; up to 500 μM.

Assay [5] has as its system CSS.1-42 (DNA, aptamer) GACGACGCCCGCATGTTCCATGGATAGTCTTGACTAGTCGTC
As to the kind of experiment: SGI fluorescence increase, microplate. The following applies: 100 mM NaCl, 10 mM MgCl2; 20 mM HEPES pH 7.5; 0.1× SGI, 1 μM aptamer; with and without 0.01% Triton X-100; up to 6 μM.

In assay [6] the test system is Ade Apt (adenosine aptamer, WT) (DNA, aptamer) ACCTGGGGGAGTATTGCGGAGGAAGGT
As to the kind of experiment: ThT fluorescence. The following applies: 50 mM NaCl, 4 mM MgCl2; 10 mM HEPES pH 7.6; 2 μM ThT, 100 nM aptamer.

As to `CCCN(CCCN(C)C)c1cc(C=C2Sc3ccccc3N2C)c2ccccc2[n+]1-c1ccccc1`, the binding entry in assay [1] was “weak”; in assay [2], “yes”.

On to `Nc1ncnc2c1ncn2[C@@H]1O[C@H](CO)[C@@H](O)[C@H]1O`, for which the Kd in assay [3] (2 μM ThT displaced, 100 nM aptamer, 10 min equilibration, apparent) turned out to be 16.6 ± 8.4 µM. Besides, the binding result in assay [4] was “no”.

`C[C@]12CCC(=O)C=C1CC[C@@H]1[C@@H]2[C@@H](O)C[C@@]2(C)[C@H]1CC[C@]2(O)C(=O)CO`: the binding entry in assay [5] is “yes”.

As for `Cc1ccc2c(c1)sc(-c1ccc(N(C)C)cc1)[n+]2C`, in assay [6], the binding result is “yes”.

With `Nc1nc2c(ncn2[C@@H]2O[C@H](CO)[C@@H](O)[C@H]2O)c(=O)[nH]1`, in assay [3] (2 μM ThT, up to 500 μM), the binding result is “no”.
